# Measurements reported in US12552785B2, “Pyrazolo[1,5-α]pyridine derivative, preparation method therefor, and composition and use thereof” (SHENZHEN ZHONGGE BIOLOGICAL TECHNOLOGY CO., LTD., priority 2020, dated 2026).
# Legend:
# VEGFR2 = VEGFR2 (Homo sapiens, UniProt P35968); assay: HTRF method for testing the inhibitory activity of compounds against VEGFR2; assay type: biochemical; details: IC50 by nonlinear regression, read-out: VEGFR2 kinase activity
# Experimental: (b) In Vitro Screening Experiment—HTRF Method for Testing the Inhibitory Activity of Compounds Against VEGFR2 Experimental Procedure: 1. […] The test compound (5 mM stock solution) was diluted 5 folds to 1 mM with 100% dimethyl sulfoxide; the compound was diluted into 10 concentrations at an equal ratio of 1:3 in a 384-well dilution plate. 3. […] 6. […] The reaction solution was centrifuged at 1000 g for 30 s, and then sealed, and incubated at room temperature for 40 min. 8. […] 10. […] 11. […] 12. IC50 was calculated with software GraphPad 6.0 by fitting inhibition values and logarithms of compound concentrations to a nonlinear regression (dose response−variable slope).
# RET = RET (Homo sapiens, UniProt P07949); assay: HTRF method for testing the inhibitory activity of compounds against RET; assay type: biochemical; details: IC50 by nonlinear regression, read-out: RET kinase activity
# Experimental: (a) In Vitro Screening Experiment-HTRF Method for Testing the Inhibitory Activity of Compounds Against RET Experimental Procedure: 1. […] 2. The test compound (5 mM stock solution) was diluted 5 folds to 1 mM with 100% dimethyl sulfoxide; the compound was diluted into 10 concentrations at an equal ratio of 1:3 in a 384-well dilution plate. 3. 0.2 μL of the serially diluted compound was added to a 384-well plate using an Echo 550 pipetting system, 2 replicate wells for each concentration, and the final concentration of dimethyl sulfoxide was 0.5% (v/v). […] 6. […] The reaction solution was centrifuged at 1000 g for 30 s, and then sealed, and incubated at room temperature for 30 min. 8. […] 10. […] 11. […] IC50 was calculated with software GraphPad 6.0 by fitting inhibition values and logarithms of compound concentrations to a nonlinear regression (dose response−variable slope).
# Ba/F3-KIF5B-RET cell = biological target: T1, Ba/F3-KIF5B-RET cell (Homo sapiens, UniProt P07949); assay: CellTiter-Glo luminescence assay for inhibitory activity against Ba/F3-KIF5B-RET cell; assay type: cell-based; details: Ba/F3-KIF5B-RET cells, 72 h
# T1 construct: fused on or other part: P33176 (Kinesin-1 heavy chain)
# From the text: (c) In Vitro Screening Experiment—CellTiter-Glo Luminescence Assay for Testing the Inhibitory Activity of Compounds Against Ba/F3-KIF5B-RET Cell Experimental Procedure: 1. The mammalian cell expression vector containing human KIF5B-RET cDNA was introduced into Ba/F3 cells using the Neon® transfection system method, and the surviving clones screened by puromycin were subjected to cell growth inhibitory function experiments and Western blotting to verify cell lines with stable and high expression of RET. 2. […] 3. The test compound (5 mM stock) was diluted 2.5 folds to 2 mM with 100% dimethyl sulfoxide; and the compound was diluted into 10 concentrations at an equal ratio of 1:3 in a 384-well dilution plate. 4. […] 6. […] 7. By fitting the data with XLFit 5.0 based on the parameters formula, the IC50 value was calculated as: Y=Bottom+(Top−Bottom)/(1+10^((Log IC50−X)*HillSlope)).
# RET, sequence (P07949 29-1114): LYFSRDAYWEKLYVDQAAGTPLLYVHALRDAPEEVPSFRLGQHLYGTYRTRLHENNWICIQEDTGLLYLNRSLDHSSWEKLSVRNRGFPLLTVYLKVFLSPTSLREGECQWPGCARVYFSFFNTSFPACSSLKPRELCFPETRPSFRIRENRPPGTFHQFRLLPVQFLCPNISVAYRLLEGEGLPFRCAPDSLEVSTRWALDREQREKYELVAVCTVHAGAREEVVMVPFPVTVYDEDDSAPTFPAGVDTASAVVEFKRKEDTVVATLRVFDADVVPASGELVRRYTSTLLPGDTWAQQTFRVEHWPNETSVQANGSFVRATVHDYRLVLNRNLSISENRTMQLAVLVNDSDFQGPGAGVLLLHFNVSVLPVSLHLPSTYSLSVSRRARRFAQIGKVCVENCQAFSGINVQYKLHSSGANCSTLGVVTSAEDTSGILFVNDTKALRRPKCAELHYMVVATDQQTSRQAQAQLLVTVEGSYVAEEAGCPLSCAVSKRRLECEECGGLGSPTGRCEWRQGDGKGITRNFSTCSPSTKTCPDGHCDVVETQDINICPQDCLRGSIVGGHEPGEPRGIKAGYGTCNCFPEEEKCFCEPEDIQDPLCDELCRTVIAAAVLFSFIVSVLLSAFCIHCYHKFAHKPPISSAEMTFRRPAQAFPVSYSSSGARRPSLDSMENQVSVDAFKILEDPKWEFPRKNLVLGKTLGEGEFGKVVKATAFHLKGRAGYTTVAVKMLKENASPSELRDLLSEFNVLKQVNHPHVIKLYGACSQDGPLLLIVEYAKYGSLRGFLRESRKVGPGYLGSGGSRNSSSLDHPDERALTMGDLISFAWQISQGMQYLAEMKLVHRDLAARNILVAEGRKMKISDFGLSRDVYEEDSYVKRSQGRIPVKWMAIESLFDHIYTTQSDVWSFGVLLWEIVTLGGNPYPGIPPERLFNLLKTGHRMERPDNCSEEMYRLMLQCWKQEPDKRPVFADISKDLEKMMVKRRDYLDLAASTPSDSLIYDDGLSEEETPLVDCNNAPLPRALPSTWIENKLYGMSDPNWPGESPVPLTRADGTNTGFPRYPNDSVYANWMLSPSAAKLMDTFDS
# T1 sequence (P07949 whole entry, stated change not applied, the tested form may be a part): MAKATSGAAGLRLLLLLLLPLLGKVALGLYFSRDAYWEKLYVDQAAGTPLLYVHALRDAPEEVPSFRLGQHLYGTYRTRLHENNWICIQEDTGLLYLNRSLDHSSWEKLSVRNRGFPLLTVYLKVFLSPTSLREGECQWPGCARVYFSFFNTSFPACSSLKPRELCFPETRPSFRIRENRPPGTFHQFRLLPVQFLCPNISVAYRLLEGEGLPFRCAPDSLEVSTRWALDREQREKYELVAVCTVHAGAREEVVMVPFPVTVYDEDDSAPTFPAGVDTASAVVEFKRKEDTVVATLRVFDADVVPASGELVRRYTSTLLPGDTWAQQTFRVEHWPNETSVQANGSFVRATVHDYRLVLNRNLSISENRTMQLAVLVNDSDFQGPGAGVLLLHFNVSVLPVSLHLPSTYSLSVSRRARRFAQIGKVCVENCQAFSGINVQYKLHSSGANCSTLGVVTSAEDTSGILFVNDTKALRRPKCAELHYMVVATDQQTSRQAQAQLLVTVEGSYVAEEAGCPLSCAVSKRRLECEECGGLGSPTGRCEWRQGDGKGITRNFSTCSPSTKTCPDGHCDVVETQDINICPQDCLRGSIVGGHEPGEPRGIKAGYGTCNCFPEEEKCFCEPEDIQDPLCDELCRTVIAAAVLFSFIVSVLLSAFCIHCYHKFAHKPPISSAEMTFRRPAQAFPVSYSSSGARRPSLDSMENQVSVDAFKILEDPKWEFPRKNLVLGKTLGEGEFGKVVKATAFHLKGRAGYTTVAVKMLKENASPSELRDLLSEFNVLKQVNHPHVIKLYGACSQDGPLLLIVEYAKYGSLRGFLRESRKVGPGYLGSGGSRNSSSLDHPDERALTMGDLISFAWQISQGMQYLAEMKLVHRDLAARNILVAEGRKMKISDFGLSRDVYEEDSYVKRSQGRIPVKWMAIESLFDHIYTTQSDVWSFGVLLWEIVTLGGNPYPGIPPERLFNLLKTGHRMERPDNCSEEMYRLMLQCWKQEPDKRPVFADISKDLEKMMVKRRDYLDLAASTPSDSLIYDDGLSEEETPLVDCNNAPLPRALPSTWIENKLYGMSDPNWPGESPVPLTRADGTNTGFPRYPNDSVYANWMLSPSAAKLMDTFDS
# VEGFR2, sequence (P35968 20-1356, species assumed): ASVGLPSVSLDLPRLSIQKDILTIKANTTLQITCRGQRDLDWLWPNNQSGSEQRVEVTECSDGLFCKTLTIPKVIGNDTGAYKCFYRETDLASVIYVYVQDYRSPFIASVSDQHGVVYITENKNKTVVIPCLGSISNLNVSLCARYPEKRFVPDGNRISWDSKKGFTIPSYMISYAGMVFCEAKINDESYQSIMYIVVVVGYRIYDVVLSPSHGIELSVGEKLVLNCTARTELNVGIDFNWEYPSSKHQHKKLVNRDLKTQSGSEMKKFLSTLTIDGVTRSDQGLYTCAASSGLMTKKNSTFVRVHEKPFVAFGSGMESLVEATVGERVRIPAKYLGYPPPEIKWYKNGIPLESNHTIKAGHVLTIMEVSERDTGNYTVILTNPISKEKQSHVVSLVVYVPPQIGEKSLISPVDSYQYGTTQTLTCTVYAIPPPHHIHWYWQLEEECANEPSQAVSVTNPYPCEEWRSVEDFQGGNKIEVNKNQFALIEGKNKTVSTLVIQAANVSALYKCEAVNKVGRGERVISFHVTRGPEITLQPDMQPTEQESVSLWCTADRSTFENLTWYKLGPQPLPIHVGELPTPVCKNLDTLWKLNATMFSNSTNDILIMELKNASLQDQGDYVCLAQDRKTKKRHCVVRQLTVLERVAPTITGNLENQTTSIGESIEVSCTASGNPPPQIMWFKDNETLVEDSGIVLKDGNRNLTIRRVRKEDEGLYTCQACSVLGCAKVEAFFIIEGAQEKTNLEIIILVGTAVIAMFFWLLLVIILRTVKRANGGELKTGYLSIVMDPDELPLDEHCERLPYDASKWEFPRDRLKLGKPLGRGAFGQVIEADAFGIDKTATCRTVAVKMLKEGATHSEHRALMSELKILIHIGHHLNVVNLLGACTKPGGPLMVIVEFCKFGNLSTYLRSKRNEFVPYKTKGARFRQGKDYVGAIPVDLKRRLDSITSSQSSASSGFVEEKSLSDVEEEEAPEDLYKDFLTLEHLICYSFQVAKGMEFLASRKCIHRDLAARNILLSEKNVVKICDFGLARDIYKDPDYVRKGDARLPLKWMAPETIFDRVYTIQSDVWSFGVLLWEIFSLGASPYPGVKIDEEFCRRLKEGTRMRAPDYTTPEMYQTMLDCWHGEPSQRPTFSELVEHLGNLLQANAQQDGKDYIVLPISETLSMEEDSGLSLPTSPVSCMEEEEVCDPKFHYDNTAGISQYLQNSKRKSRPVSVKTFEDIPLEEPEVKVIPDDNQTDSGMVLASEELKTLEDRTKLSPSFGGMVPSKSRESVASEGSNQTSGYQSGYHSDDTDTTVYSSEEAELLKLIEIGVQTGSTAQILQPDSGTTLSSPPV
Structure (SMILES),IC50 (VEGFR2) [nM],IC50 (RET) [nM],GI50 (Ba/F3-KIF5B-RET cell) [nM]
"C[C@@H](Nc1ccc(-c2cc(OCC(C)(C)O)cn3ncc(C#N)c23)cn1)c1ccc(-n2cc(F)cn2)nc1 [Compound 5, (R)-4-(6-((1-(6-(4-fluoro-1H-pyrazol-1-yl)pyridin-3-yl)ethyl)amino)pyridin-3-yl)-6-(2-hydroxy-2-methylpropoxy)pyrazolo[1,5-a]pyridine-3-carbonitrile]",44.7,6.3,85.1
"C[C@@H](c1ccc(-n2cc(F)cn2)nc1)N(C)c1ccc(-c2cc(OCC(C)(C)O)cn3ncc(C#N)c23)cn1 [Compound 61, (S)-4-(6-((1-(6-(4-fluoro-1H-pyrazol-1-yl)pyridin-3-yl)ethyl)(methyl)amino)pyridine-3-yl)-6-(2-hydroxy-2-methylpropoxy)pyrazolo[1,5-a]pyridine-3-carbonitrile]",25.5,0.48,1.53
"C[C@@H](c1ccc(-n2cc(F)cn2)nc1)N(C)c1ccc(-c2cc(OCC(C)(C)C#N)cn3ncc(C#N)c23)cn1 [Compound 18, (S)-6-(2-cyano-2-methylpropoxy)-4-(6-((1-(6-(4-fluoro-1H-pyrazol-1-yl)pyridine-3-yl)ethyl)(methyl)amino)pyridin-3-yl)pyrazolo[1,5-a]pyridine-3-carbonitrile]",135,0.4,40
Cc1cnn(-c2ccc([C@H](C)N(C)c3ccc(-c4cc(OCC(C)(C)O)cn5ncc(C#N)c45)cn3)cn2)c1 [Compound 37],270,–,18.6
"CC(C)(O)COc1cc(-c2ccc(NCc3ccc(N4CCCC4=O)nc3)nc2)c2c(C#N)cnn2c1 [Compound 8, 6-(2-hydroxy-2-methylpropoxy)-4-(6-((6-(2-oxopyrrolidin-1-yl)pyridin-3-yl)methylamino)pyridine-3-yl)pyrazolo[1,5-a]pyridine-3-carbonitrile]",170,9.4,68.5
"C[C@@H](c1ccc(-n2cc(F)cn2)nc1)N(C)c1ccc(-c2cc(C#CC(C)(C)O)cn3ncc(C#N)c23)cn1 [Compound 27, (S)-4-(6-((1-(6-(4-fluoro-1H-pyrazol-1-yl)pyridin-3-yl)ethyl)(methyl)amino)pyridine-3-yl)-6-(3-hydroxy-3-methyl-1-yn-1-yl)pyrazolo[1,5-a]pyridine-3-carbonitrile]",21.9,1.33,43.8
"C[C@@H](c1ccc(-n2cc(F)cn2)nc1)N(C)c1ccc(-c2cc(OCCF)cn3ncc(C#N)c23)cn1 [Compound 41, (S)-4-(6-((1-(6-(4-fluoro-1H-pyrazol-1-yl)pyridin-3-yl)ethyl)(methyl)amino)pyridine-3-yl)-6-(2-fluoroethoxy)pyrazolo[1,5-a]pyridine-3-carbonitrile]",49.7,0.34,–
CC(C)(O)COc1cc(-c2ccc(NCc3ccc(N4CCOCC4)nc3)nc2)c2c(C#N)cnn2c1 [Compound 12],107,12.8,75.5
C#Cc1cc(-c2ccc(N(C)[C@@H](C)c3ccc(-n4cc(F)cn4)nc3)nc2)c2c(C#N)cnn2c1 [Compound 65],780,2.66,–
"CCN(CC)c1ccc([C@H](C)N(C)c2ccc(-c3cc(OCC(C)(C)O)cn4ncc(C#N)c34)cn2)cn1 [Compound 42, (S)-4-(6-((1-(6-(diethylamino)pyridin-3-yl)ethyl)(methyl)amino)pyridin-3-yl)-6-(2-hydroxy-2-methylpropoxy)pyrazolo[1,5-a]pyridine-3-carbonitrile]",199,18,–
C[C@@H](c1ccc(-n2cc(F)cn2)nc1)N(C)c1ccc(-c2cc(N3CCCC3)cn3ncc(C#N)c23)cn1 [Compound 59],64.3,3.49,–
"C[C@@H](c1ccc(-n2cc(Cl)cn2)nc1)N(C)c1ccc(-c2cc(OCC(C)(C)O)cn3ncc(C#N)c23)cn1 [Compound 45, (S)-4-(6-((1-(6-(4-chloro-1H-pyrazol-1-yl)pyridin-3-yl)ethyl)(methyl)amino)pyridine-3-yl)-6-(2-hydroxy-2-methylpropoxy)pyrazo[1,5-a]pyridine-3-carbonitrile]",1980,–,39.3
Cc1ccc([C@H](C)N(C)c2ccc(-c3cc(OCC(C)(C)O)cn4ncc(C#N)c34)cn2)cn1 [Compound 63],361,4.56,–
"C=CCOc1cc(-c2ccc(N(C)[C@@H](C)c3ccc(-n4cc(F)cn4)nc3)nc2)c2c(C#N)cnn2c1 [Compound 31, (S)-4-(6-((1-(6-(4-fluoro-1H-pyrazol-1-yl)pyridin-3-yl)ethyl)(methyl)amino)pyridine-3-yl)-6-allyloxypyrazolo[1,5-a]pyridine-3-carbonitrile]",> 5000,269,–
"COc1cc(-c2ccc(N(C)[C@@H](C)c3ccc(-n4cc(F)cn4)nc3)nc2)c2c(C#N)cnn2c1 [Compound 40, (S)-4-(6-((1-(6-(4-fluoro-1H-pyrazol-1-yl)pyridin-3-yl)ethyl)(methyl)amino)pyridine-3-yl)-6-methoxypyrazolo[1,5-a]pyridine-3-carbonitrile]",48.3,0.83,–
CCc1cc(-c2ccc(N(C)[C@@H](C)c3ccc(-n4cc(F)cn4)nc3)nc2)c2c(C#N)cnn2c1 [Compound 66],241,4.35,–

# Compounds with a lower IC50 (VEGFR2), results first:
IC50 (VEGFR2) [nM],IC50 (RET) [nM],GI50 (Ba/F3-KIF5B-RET cell) [nM],Structure (SMILES)
4.14,0.47,5.02,"CCNc1cc(-c2ccc(N(C)[C@@H](C)c3ccc(-n4cc(F)cn4)nc3)nc2)c2c(C#N)cnn2c1 [Compound 51, (S)-4-(6-((1-(6-(4-fluoro-1H-pyrazol-1-yl)pyridin-3-yl)ethyl)(methyl)amino)pyridine-3-yl)-6-(ethylamino)pyrazolo[1,5-a]pyridine-3-carbonitrile]"
11.8,1.2,50.5,CC(Nc1ccc(-c2cc(OCC(C)(C)O)cn3ncc(C#N)c23)cn1)c1ccc(-n2cc(F)cn2)nc1 (stereo not drawn) [Compound 6]
2.95,0.58,10.4,"CC[C@H](Nc1ccc(-c2cc(OCC(C)(C)O)cn3ncc(C#N)c23)cn1)c1ccc(-n2cc(F)cn2)nc1 [Compound 15, (S)-4-(6-((1-(6-(4-fluoro-1H-pyrazol-1-yl)pyridin-3-yl)propyl)amino)pyridin-3-yl)-6-(2-hydroxy-2-methylpropoxy)pyrazolo[1,5-a]pyridine-3-carbonitrile]"
7.37,0.34,13.9,"CC(C)(O)COc1cc(-c2ccc(NCc3ccc(-n4cc(F)cn4)nc3)nc2)c2c(C#N)cnn2c1 [Compound 1, 4-(6-(((6-(4-fluoro-1H-pyrazol-1-yl)pyridin-3-yl)methyl)amino)pyridin-3-yl)-6-(2-hydroxy-2-methylpropoxy)pyrazolo[1,5-a]pyridine-3-carbonitrile]"
18,0.26,18.6,"CC[C@@H](c1ccc(-n2cc(F)cn2)nc1)N(C)c1ccc(-c2cc(OCC(C)(C)O)cn3ncc(C#N)c23)cn1 [Compound 44, (S)-4-(6-((1-(6-(4-fluoro-1H-pyrazolyl)pyridin-3-yl)propyl)(methyl)amino)pyridin-3-yl)-6-(2-hydroxy-2-methylpropoxy)pyrazo[1,5-a]pyridine-3-carbonitrile]"
1.08,0.19,18,N#Cc1cnn2cc(OC[C@H]3CNCCO3)cc(-c3ccc(NCc4ccc(-n5cc(F)cn5)nc4)nc3)c12 [Compound 3]
5.62,0.29,–,"CNc1cc(-c2ccc(N(C)[C@@H](C)c3ccc(-n4cc(F)cn4)nc3)nc2)c2c(C#N)cnn2c1 [Compound 52, (S)-4-(6-((1-(6-(4-fluoro-1H-pyrazol-1-yl)pyridin-3-yl)ethyl)(methyl)amino)pyridine-3-yl)-6-(methylamino)pyrazolo[1,5-a]pyridine-3-carbonitrile]"
21.1,0.3,–,"COCCOc1cc(-c2ccc(N(C)[C@@H](C)c3ccc(-n4cc(F)cn4)nc3)nc2)c2c(C#N)cnn2c1 [Compound 54, (S)-4-(6-((1-(6-(4-fluoro-1H-pyrazol-1-yl)pyridin-3-yl)ethyl)(methyl)amino)pyridine-3-yl)-6-(2-methoxyethoxy)pyrazolo[1,5-a]pyridine-3-carbonitrile]"
